Organism: Rattus norvegicus
Experiment: Open TG-GATES - Regimen: Single
Format: toxicity, organism-based, Sprague-Dawley
Design: regimen Single, gender Male, age 6 weeks
Conditions: in vivo, po, 0 mg/kg, route gavage, dose level Control; for APTT / Bas / Eos / Fbg / Hb / Ht / Lym / MCH / MCHC / MCV / Mono / Neu / PT / Plat / RBC / Ret / WBC: tissue Blood; for KIDNEY_L / KIDNEY_R / KIDNEY_TOTAL: tissue Kidney; for LIVER: tissue Liver; for A/G / ALP / ALT / AST / BUN / CRE / Ca / Cl / DBIL / GLC / IP / K / LDH / Na / PL / RALB / TBIL / TC / TG / TP / gamma-GTP: tissue Plasma

`O=c1ccc2ccccc2o1` [COUMARIN] gave a TERMINAL_BW (3 h) of 182.8 g, an APTT (3 h) of 16.6 s and a Bas (3 h) of 0%. It also gave an Eos (3 h) of 0.6%, a Fbg (3 h) of 205.4 mg/dL and a Hb (3 h) of 13.5 g/dL. It also gave a Ht (3 h) of 40%, a Lym (3 h) of 83.8% and an MCH (3 h) of 22.1 pg. For the same compound, the MCHC (3 h) was 33.6%, the MCV (3 h) was 65.8 fL and the Mono (3 h) was 4.8%. It also gave a Neu (3 h) of 11%, a PT (3 h) of 12.3 s and a Plat (3 h) of 106.1 x10_4/uL. It also gave an RBC (3 h) of 608.6 x10_4/ul, a Ret (3 h) of 8.9% and a WBC (3 h) of 102.6 x10_2/uL. The KIDNEY_L (3 h) was 0.8 g, the KIDNEY_R (3 h) was 0.8 g and the KIDNEY_TOTAL (3 h) was 1.7 g. The LIVER (3 h) was 8.4 g, the A/G (3 h) was 2.1 and the ALP (3 h) was 1014.2 IU/L. For the same compound, the ALT (3 h) was 43 IU/L, the AST (3 h) was 69.4 IU/L and the BUN (3 h) was 11.2 mg/dL. For the same compound, the CRE (3 h) was 0.5 mg/dL, the Ca (3 h) was 10.9 mg/dL and the Cl (3 h) was 104.8 meq/L. It also gave a DBIL (3 h) of 0.026 mg/dL, a GLC (3 h) of 189.4 mg/dL and an IP (3 h) of 10.7 mg/dL. For the same compound, the K (3 h) was 4.7 meq/L, the LDH (3 h) was 76.6 IU/L and the Na (3 h) was 138.6 meq/L. The PL (3 h) was 158.2 mg/dL, the RALB (3 h) was 4 g/dL and the TBIL (3 h) was 0.3 mg/dL. It also gave a TC (3 h) of 81.4 mg/dL, a TG (3 h) of 99.4 mg/dL and a TP (3 h) of 5.8 g/dL. The gamma-GTP (3 h) was 1.6 IU/L, the TERMINAL_BW (6 h) was 179.5 g and the APTT (6 h) was 16.3 s. The Bas (6 h) was 0%, the Eos (6 h) was 0.8% and the Fbg (6 h) was 205.8 mg/dL. For the same compound, the Hb (6 h) was 13.5 g/dL, the Ht (6 h) was 40.4% and the Lym (6 h) was 75.4%. The MCH (6 h) was 21.8 pg, the MCHC (6 h) was 33.4% and the MCV (6 h) was 65.4 fL. For the same compound, the Mono (6 h) was 7.8%, the Neu (6 h) was 16.6% and the PT (6 h) was 12.4 s. The Plat (6 h) was 108.2 x10_4/uL, the RBC (6 h) was 617.2 x10_4/ul and the Ret (6 h) was 9.3%. For the same compound, the WBC (6 h) was 115.3 x10_2/uL, the KIDNEY_L (6 h) was 0.8 g and the KIDNEY_R (6 h) was 0.9 g. It also gave a KIDNEY_TOTAL (6 h) of 1.7 g, an LIVER (6 h) of 7.7 g and an A/G (6 h) of 2.1. It also gave an ALP (6 h) of 982 IU/L, an ALT (6 h) of 36.4 IU/L and an AST (6 h) of 66.6 IU/L. The BUN (6 h) was 11.4 mg/dL, the CRE (6 h) was 0.5 mg/dL and the Ca (6 h) was 10.4 mg/dL. The Cl (6 h) was 107.8 meq/L, the DBIL (6 h) was 0.002 mg/dL and the GLC (6 h) was 184.6 mg/dL. The IP (6 h) was 11.3 mg/dL, the K (6 h) was 5.4 meq/L and the LDH (6 h) was 96.8 IU/L. It also gave a Na (6 h) of 139.4 meq/L, a PL (6 h) of 144.4 mg/dL and an RALB (6 h) of 3.8 g/dL. For the same compound, the TBIL (6 h) was 0.3 mg/dL, the TC (6 h) was 82 mg/dL and the TG (6 h) was 52.2 mg/dL. It also gave a TP (6 h) of 5.6 g/dL, a gamma-GTP (6 h) of 1.4 IU/L and a TERMINAL_BW (9 h) of 180 g. It also gave an APTT (9 h) of 16 s, a Bas (9 h) of 0% and an Eos (9 h) of 0.8%. The Fbg (9 h) was 206.8 mg/dL, the Hb (9 h) was 13.1 g/dL and the Ht (9 h) was 39.4%. It also gave a Lym (9 h) of 79.2%, an MCH (9 h) of 21.9 pg and an MCHC (9 h) of 33.3%. The MCV (9 h) was 65.9 fL, the Mono (9 h) was 6.4% and the Neu (9 h) was 14%. The PT (9 h) was 12.4 s, the Plat (9 h) was 117.4 x10_4/uL and the RBC (9 h) was 598.6 x10_4/ul. For the same compound, the Ret (9 h) was 9.2%, the WBC (9 h) was 106.8 x10_2/uL and the KIDNEY_L (9 h) was 0.9 g. The KIDNEY_R (9 h) was 0.9 g, the KIDNEY_TOTAL (9 h) was 1.7 g and the LIVER (9 h) was 7.4 g. It also gave an A/G (9 h) of 2.1, an ALP (9 h) of 975.8 IU/L and an ALT (9 h) of 31.2 IU/L. It also gave an AST (9 h) of 59.4 IU/L, a BUN (9 h) of 12.4 mg/dL and a CRE (9 h) of 0.5 mg/dL. The Ca (9 h) was 10.7 mg/dL, the Cl (9 h) was 106 meq/L and the DBIL (9 h) was 0.022 mg/dL. For the same compound, the GLC (9 h) was 190.8 mg/dL, the IP (9 h) was 11 mg/dL and the K (9 h) was 5.1 meq/L. For the same compound, the LDH (9 h) was 82.2 IU/L, the Na (9 h) was 138.2 meq/L and the PL (9 h) was 139 mg/dL. It also gave an RALB (9 h) of 3.7 g/dL, a TBIL (9 h) of 0.3 mg/dL and a TC (9 h) of 79.4 mg/dL. It also gave a TG (9 h) of 36.6 mg/dL, a TP (9 h) of 5.5 g/dL and a gamma-GTP (9 h) of 1.6 IU/L. The TERMINAL_BW (24 h) was 191.8 g, the APTT (24 h) was 16.1 s and the Bas (24 h) was 0%. It also gave an Eos (24 h) of 0.8%, a Fbg (24 h) of 205.4 mg/dL and a Hb (24 h) of 13.2 g/dL. It also gave a Ht (24 h) of 39.3%, a Lym (24 h) of 77.2% and an MCH (24 h) of 21.8 pg. It also gave an MCHC (24 h) of 33.4%, an MCV (24 h) of 65.1 fL and a Mono (24 h) of 8.8%. It also gave a Neu (24 h) of 13.6%, a PT (24 h) of 12.5 s and a Plat (24 h) of 106.5 x10_4/uL. It also gave an RBC (24 h) of 604.2 x10_4/ul, a Ret (24 h) of 8.3% and a WBC (24 h) of 132 x10_2/uL. For the same compound, the KIDNEY_L (24 h) was 0.9 g, the KIDNEY_R (24 h) was 0.9 g and the KIDNEY_TOTAL (24 h) was 1.8 g. It also gave an LIVER (24 h) of 9 g, an A/G (24 h) of 1.9 and an ALP (24 h) of 985.2 IU/L. It also gave an ALT (24 h) of 37 IU/L, an AST (24 h) of 64.4 IU/L and a BUN (24 h) of 16.2 mg/dL. The CRE (24 h) was 0.5 mg/dL, the Ca (24 h) was 10.8 mg/dL and the Cl (24 h) was 105.4 meq/L. For the same compound, the DBIL (24 h) was 0 mg/dL, the GLC (24 h) was 184.4 mg/dL and the IP (24 h) was 7.9 mg/dL. The K (24 h) was 5.5 meq/L, the LDH (24 h) was 92.6 IU/L and the Na (24 h) was 137.8 meq/L. The PL (24 h) was 138 mg/dL, the RALB (24 h) was 3.7 g/dL and the TBIL (24 h) was 0.3 mg/dL. It also gave a TC (24 h) of 76 mg/dL, a TG (24 h) of 82.8 mg/dL and a TP (24 h) of 5.6 g/dL. The gamma-GTP (24 h) was 1.2 IU/L.

— ChEMBL document CHEMBL3885861, “Open TG-GATES”
